Reference: patent US20020137929A1, “1 - (3-heterocyclylphenyl) isothiourea, -isourea, -guanidine and -amidine herbicidal agents” (Intellectual Property Department, BASF Aktiengesellschaft, priority 1998, published 2002)

Columns and labels:
ABUTH (Velvetleaf) = assay: Postemergence herbicidal evaluation; format: in vivo, Abutilon theophrasti
Outline: (§1)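 Seedlings grown about two weeks were sprayed at 40 psi with compound dispersed in 50/50 acetone/water plus 0.5% TWEEN 20, at about 0.0156 to 0.500 kg/ha. Plants were kept in the greenhouse and scored 4–5 weeks later on a 0–9 visual scale against untreated controls.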

AMBEL (Ragweed, Common) [1] = assay: Postemergence herbicidal evaluation; format: in vivo, Ambrosia artemisifolia
Outline: as §1

[2] = test system: CHEAL (Lambsquarters, Common); assay: Postemergence herbicidal evaluation; format: in vivo, Chenopodium album
Outline: as §1

ECHCG (Barnyardgrass) = assay: Postemergence herbicidal evaluation; format: in vivo, Echinochloa crus-galli
Outline: as §1

[3] = test system: GLXMAW (Soybean, Williams); assay: Postemergence herbicidal evaluation; format: in vivo, Glycine max, (L.) Merr. cv Williams
Outline: as §1

ORYSAT (Rice, Tebonnet) = assay: Postemergence herbicidal evaluation; format: in vivo, Oryza sativa, (L.) Tebonnet
Outline: as §1

ZEAMX (Corn, Field) = assay: Postemergence herbicidal evaluation; format: in vivo, Zea mays
Outline: as §1

AMBEL (Ragweed, Common) [4] = assay: Preemergence herbicidal evaluation; format: in vivo, Ambrosia artemisifolia; conditions: rated 4-5 weeks after treatment
Outline: (§2)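 Preemergence soil application of compound, sprayed in aqueous acetone at rates equivalent to about 0.0156 to 0.500 kg per hectare onto freshly sown cups. Plant response was judged by eye on a 0-9 scale four to five weeks later.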

CASOB (Sicklepod) = assay: Preemergence herbicidal evaluation; format: in vivo, Cassia obtusifolia; conditions: rated 4-5 weeks after treatment
Outline: as §2

[5] = test system: CHEAL (Lambsquarters, Common); assay: Preemergence herbicidal evaluation; format: in vivo, Chenopodium album; conditions: rated 4-5 weeks after treatment
Outline: as §2

GALAP (Galium) = assay: Preemergence herbicidal evaluation; format: in vivo, Galium aparine; conditions: rated 4-5 weeks after treatment
Outline: as §2

CYPSE (Flatsedge) [6] = assay: Preemergence weed control under flooded paddy conditions; format: in vivo, Cyperus serotinus; conditions: rated 3-4 weeks after treatment
Outline: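 Values are visual 0-9 scores against a control for a preemergence application into paddy flood water at about 0.0313 to 0.500 kg/ha. Greenhouse duration was three to four weeks.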

CYPIR (Rice Flatsedge) = assay: Postemergence weed control under flooded paddy conditions; format: in vivo, Cyperus iria; conditions: postemergence weeds, 3-4 weeks after treatment
Outline: (§3)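 Weeds 3 to 5 cm tall and rice seedlings at the 1.5 to 2.5 leaf stage were flooded, with water held 1.5 to 3 cm above the soil. Compounds in 50/50 v/v aqueous/acetone went into the flood water at about 0.0313 to 0.500 kg/ha. Visual 0-9 ratings versus control were made 3 to 4 weeks later.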

CYPSE (Flatsedge) [7] = assay: as above; format: in vivo, Cyperus serotinus; conditions: postemergence weeds, 3-4 weeks after treatment
Outline: as §3

## CCOP(=O)(CN1C(=O)CSC1=Nc1cc(-n2c(=O)cc(C(F)(F)F)n(C)c2=O)c(F)cc1Cl)OCC [Compound 35, Diethyl {{2-{{2-chloro-5-[3,6-dihydro-3-methyl-2,6-dioxo-4-(trifluoromethyl)-1(2H)-pyrimidinyl]-4-fluorophenyl}imino}-4-oxo-3-thiazolidinyl}methyl}phosphonate]
ABUTH (Velvetleaf); Rate 0.0158 kg/ha
  Postemergence herbicidal rating ABUTH: 9.0
ABUTH (Velvetleaf); Rate 0.0315 kg/ha
  Postemergence herbicidal rating ABUTH: 9.0
ABUTH (Velvetleaf); Rate 0.0630 kg/ha
  Postemergence herbicidal rating ABUTH: 9.0
AMBEL (Ragweed, Common) [1]; Rate 0.0158 kg/ha
  Postemergence herbicidal rating AMBEL: 9.0
AMBEL (Ragweed, Common) [1]; Rate 0.0315 kg/ha
  Postemergence herbicidal rating AMBEL: 9.0
AMBEL (Ragweed, Common) [1]; Rate 0.0630 kg/ha
  Postemergence herbicidal rating AMBEL: 9.0
[2]; Rate 0.0158 kg/ha
  Postemergence herbicidal rating CHEAL: 7.0
[2]; Rate 0.0315 kg/ha
  Postemergence herbicidal rating CHEAL: 9.0
[2]; Rate 0.0630 kg/ha
  Postemergence herbicidal rating CHEAL: 9.0
ECHCG (Barnyardgrass); Rate 0.0158 kg/ha
  Postemergence herbicidal rating ECHCG: 0.0
ECHCG (Barnyardgrass); Rate 0.0315 kg/ha
  Postemergence herbicidal rating ECHCG: 0.0
ECHCG (Barnyardgrass); Rate 0.0630 kg/ha
  Postemergence herbicidal rating ECHCG: 1.0
[3]; Rate 0.0158 kg/ha
  Postemergence herbicidal rating GLXMAW: 7.0
[3]; Rate 0.0315 kg/ha
  Postemergence herbicidal rating GLXMAW: 7.5
[3]; Rate 0.0630 kg/ha
  Postemergence herbicidal rating GLXMAW: 9.0
ORYSAT (Rice, Tebonnet); Rate 0.0158 kg/ha
  Postemergence herbicidal rating ORYSAT: 2.0
ORYSAT (Rice, Tebonnet); Rate 0.0315 kg/ha
  Postemergence herbicidal rating ORYSAT: 3.0
ORYSAT (Rice, Tebonnet); Rate 0.0630 kg/ha
  Postemergence herbicidal rating ORYSAT: 3.5
ZEAMX (Corn, Field); Rate 0.0158 kg/ha
  Postemergence herbicidal rating ZEAMX: 3.5
ZEAMX (Corn, Field); Rate 0.0315 kg/ha
  Postemergence herbicidal rating ZEAMX: 3.5
ZEAMX (Corn, Field); Rate 0.0630 kg/ha
  Postemergence herbicidal rating ZEAMX: 4.5
AMBEL (Ragweed, Common) [4]; rate 0.0625 kg/ha
  Preemergence herbicidal rating AMBEL: 0.0
AMBEL (Ragweed, Common) [4]; rate 0.1250 kg/ha
  Preemergence herbicidal rating AMBEL: 3.0
AMBEL (Ragweed, Common) [4]; rate 0.2500 kg/ha
  Preemergence herbicidal rating AMBEL: 9.0
CASOB (Sicklepod); rate 0.0625 kg/ha
  Preemergence herbicidal rating CASOB: 0.0
CASOB (Sicklepod); rate 0.1250 kg/ha
  Preemergence herbicidal rating CASOB: 0.0
CASOB (Sicklepod); rate 0.2500 kg/ha
  Preemergence herbicidal rating CASOB: 3.0
[5]; rate 0.0625 kg/ha
  Preemergence herbicidal rating CHEAL: 9.0
[5]; rate 0.1250 kg/ha
  Preemergence herbicidal rating CHEAL: 9.0
[5]; rate 0.2500 kg/ha
  Preemergence herbicidal rating CHEAL: 9.0
GALAP (Galium); rate 0.0625 kg/ha
  Preemergence herbicidal rating GALAP: 0.0
GALAP (Galium); rate 0.1250 kg/ha
  Preemergence herbicidal rating GALAP: 0.0
GALAP (Galium); rate 0.2500 kg/ha
  Preemergence herbicidal rating GALAP: 9.0
CYPSE (Flatsedge) [6]; 0.1250 kg/ha
  Herbicidal rating CYPSE: 0.0
CYPSE (Flatsedge) [6]; 0.2500 kg/ha
  Herbicidal rating CYPSE: 0.0
CYPIR (Rice Flatsedge); rate 0.1250 kg/ha
  Herbicidal rating CYPIR: 0.0
CYPIR (Rice Flatsedge); rate 0.2500 kg/ha
  Herbicidal rating CYPIR: 0.0
CYPSE (Flatsedge) [7]; rate 0.1250 kg/ha
  Herbicidal rating CYPSE: 0.0
CYPSE (Flatsedge) [7]; rate 0.2500 kg/ha
  Herbicidal rating CYPSE: 0.0

## CCOC(=O)CN1CCSC1=Nc1cc(-n2nc(C)n(C(F)F)c2=O)c(F)cc1Cl [Compound 36]
ABUTH (Velvetleaf); Rate 0.0158 kg/ha
  Postemergence herbicidal rating ABUTH: 9.0
ABUTH (Velvetleaf); Rate 0.0315 kg/ha
  Postemergence herbicidal rating ABUTH: 9.0
ABUTH (Velvetleaf); Rate 0.0630 kg/ha
  Postemergence herbicidal rating ABUTH: 9.0
AMBEL (Ragweed, Common) [1]; Rate 0.0158 kg/ha
  Postemergence herbicidal rating AMBEL: 2.0
AMBEL (Ragweed, Common) [1]; Rate 0.0315 kg/ha
  Postemergence herbicidal rating AMBEL: 3.0
AMBEL (Ragweed, Common) [1]; Rate 0.0630 kg/ha
  Postemergence herbicidal rating AMBEL: 9.0
[2]; Rate 0.0158 kg/ha
  Postemergence herbicidal rating CHEAL: 2.0
[2]; Rate 0.0315 kg/ha
  Postemergence herbicidal rating CHEAL: 3.0
[2]; Rate 0.0630 kg/ha
  Postemergence herbicidal rating CHEAL: 4.0
ECHCG (Barnyardgrass); Rate 0.0158 kg/ha
  Postemergence herbicidal rating ECHCG: 0.0
ECHCG (Barnyardgrass); Rate 0.0315 kg/ha
  Postemergence herbicidal rating ECHCG: 2.0
ECHCG (Barnyardgrass); Rate 0.0630 kg/ha
  Postemergence herbicidal rating ECHCG: 9.0
[3]; Rate 0.0158 kg/ha
  Postemergence herbicidal rating GLXMAW: 5.0
[3]; Rate 0.0315 kg/ha
  Postemergence herbicidal rating GLXMAW: 5.5
[3]; Rate 0.0630 kg/ha
  Postemergence herbicidal rating GLXMAW: 8.0
ORYSAT (Rice, Tebonnet); Rate 0.0158 kg/ha
  Postemergence herbicidal rating ORYSAT: 0.5
ORYSAT (Rice, Tebonnet); Rate 0.0315 kg/ha
  Postemergence herbicidal rating ORYSAT: 1.0
ORYSAT (Rice, Tebonnet); Rate 0.0630 kg/ha
  Postemergence herbicidal rating ORYSAT: 6.0
ZEAMX (Corn, Field); Rate 0.0158 kg/ha
  Postemergence herbicidal rating ZEAMX: 4.5
ZEAMX (Corn, Field); Rate 0.0315 kg/ha
  Postemergence herbicidal rating ZEAMX: 6.0
ZEAMX (Corn, Field); Rate 0.0630 kg/ha
  Postemergence herbicidal rating ZEAMX: 7.5
AMBEL (Ragweed, Common) [4]; rate 0.0625 kg/ha
  Preemergence herbicidal rating AMBEL: 0.0
AMBEL (Ragweed, Common) [4]; rate 0.1250 kg/ha
  Preemergence herbicidal rating AMBEL: 0.0
AMBEL (Ragweed, Common) [4]; rate 0.2500 kg/ha
  Preemergence herbicidal rating AMBEL: 9.0
CASOB (Sicklepod); rate 0.0625 kg/ha
  Preemergence herbicidal rating CASOB: 0.0
CASOB (Sicklepod); rate 0.2500 kg/ha
  Preemergence herbicidal rating CASOB: 0.0
[5]; rate 0.0625 kg/ha
  Preemergence herbicidal rating CHEAL: 0.0
[5]; rate 0.1250 kg/ha
  Preemergence herbicidal rating CHEAL: 9.0
[5]; rate 0.2500 kg/ha
  Preemergence herbicidal rating CHEAL: 9.0
GALAP (Galium); rate 0.0625 kg/ha
  Preemergence herbicidal rating GALAP: 9.0
GALAP (Galium); rate 0.1250 kg/ha
  Preemergence herbicidal rating GALAP: 9.0
GALAP (Galium); rate 0.2500 kg/ha
  Preemergence herbicidal rating GALAP: 9.0
CYPSE (Flatsedge) [6]; 0.0313 kg/ha
  Herbicidal rating CYPSE: 0.0
CYPSE (Flatsedge) [6]; 0.0625 kg/ha
  Herbicidal rating CYPSE: 0.0
CYPSE (Flatsedge) [6]; 0.1250 kg/ha
  Herbicidal rating CYPSE: 2.0
CYPSE (Flatsedge) [6]; 0.2500 kg/ha
  Herbicidal rating CYPSE: 4.0
CYPIR (Rice Flatsedge); rate 0.0313 kg/ha
  Herbicidal rating CYPIR: 0.0
CYPIR (Rice Flatsedge); rate 0.0625 kg/ha
  Herbicidal rating CYPIR: 5.0
CYPIR (Rice Flatsedge); rate 0.1250 kg/ha
  Herbicidal rating CYPIR: 5.0
CYPIR (Rice Flatsedge); rate 0.2500 kg/ha
  Herbicidal rating CYPIR: 9.0
CYPSE (Flatsedge) [7]; rate 0.0313 kg/ha
  Herbicidal rating CYPSE: 0.0
CYPSE (Flatsedge) [7]; rate 0.0625 kg/ha
  Herbicidal rating CYPSE: 0.0
CYPSE (Flatsedge) [7]; rate 0.1250 kg/ha
  Herbicidal rating CYPSE: 2.0
CYPSE (Flatsedge) [7]; rate 0.2500 kg/ha
  Herbicidal rating CYPSE: 4.0
